Test results as given in paper PMC3602143 (Bioorganic & medicinal chemistry letters, 2013).

Legend:
[1] = test system: EcDXR; settings: read-out: Km of EcDXR; substrate DXP; ref [13]; cited from earlier work
[2] = test system: PfDXR; settings: read-out: Km of PfDXR; substrate DXP; ref [15]; cited from earlier work
[3] = test system: Mycobacterium tuberculosis DXR; settings: read-out: Km of Mycobacterium tuberculosis DXR; substrate DXP; ref [23]; cited from earlier work
[4] = test system: malaria parasites; settings: ref [16]; cited from earlier work
[5] = test system: strain of T. gondii engineered to express the bacterial GlpT; settings: ref [22]; cited from earlier work
[6] = background statement; cited from earlier work
[7] = biological target: T1, recombinant T. gondii DXR (TgDXR) (Toxoplasma gondii, UniProt S8ESX0); assay: TgDXR enzyme inhibition assay; type: biochemical; settings: average of acetyl analogs 8 and 9 vs 6 and 7
T1 sequence (S8ESX0 187-632): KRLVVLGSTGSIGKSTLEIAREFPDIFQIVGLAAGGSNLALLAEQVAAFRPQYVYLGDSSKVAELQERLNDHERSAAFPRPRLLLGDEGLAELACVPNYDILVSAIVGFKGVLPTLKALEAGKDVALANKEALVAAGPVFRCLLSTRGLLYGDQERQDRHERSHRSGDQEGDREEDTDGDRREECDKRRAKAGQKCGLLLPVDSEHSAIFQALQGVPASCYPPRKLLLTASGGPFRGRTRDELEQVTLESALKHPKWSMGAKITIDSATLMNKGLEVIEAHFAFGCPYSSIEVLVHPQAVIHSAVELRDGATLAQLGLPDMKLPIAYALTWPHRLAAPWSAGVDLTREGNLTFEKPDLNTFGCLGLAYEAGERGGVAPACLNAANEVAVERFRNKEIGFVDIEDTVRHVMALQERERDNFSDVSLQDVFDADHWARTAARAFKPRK

[8] = test system: T. gondii; assay: T. gondii growth / proliferation; type: cell-based, Toxoplasma gondii; settings: previous method of ref [22]
[9] = test system: bacteria including E. coli; settings: ref [11]; cited from earlier work
[10] = substrate: CC(=O)[C@@H](O)[C@H](O)COP(=O)(O)O; assay: TgDXR enzyme inhibition assay; type: biochemical, Toxoplasma gondii; settings: other: DXP 10 to 450 μM, [Mg2+] = 4 mM, Michaelis-Menten fit; 30.0 °C

## CC(=O)[C@@H](O)[C@H](O)COP(=O)(O)O [DXP, 1-deoxy-D-xylulose-5-phosphate]
[1]
  Km: 99 µM
[2]
  Km: 106 µM
[3]
  Km: 47 µM

## O=CN(O)CCC(c1ccc(Cl)c(Cl)c1)P(=O)(O)O (stereo not drawn) [Compound 10]
[4]
  antimalarial activities: potent

## CC(=O)N(O)CCC(c1ccc(Cl)c(Cl)c1)P(=O)(O)O (stereo not drawn) [Compound 11]
[4]
  antimalarial activities: potent

## O=CN(O)CCCP(=O)(O)O [Compound 1, Fosmidomycin]
[5]
  killing of GlpT-expressing T. gondii: can effectively kill
[6]
  half-life in plasma: very short

## CC(=O)N(O)CCC(c1ccncc1)P(=O)(O)O (stereo not drawn) [Compound 9]
[7]
  fold less activity against TgDXR than formyl analogs 6 and 7: ~ 11 fold

## CC(=O)N(O)CCC(c1cccnc1)P(=O)(O)O (stereo not drawn) [Compound 8]
[7]
  fold less activity against TgDXR than formyl analogs 6 and 7: ~ 11 fold

## O=c1ccc(-c2ccccc2)cn1O [Compound 5]
[8]
  block of proliferation / activity against growth of T. gondii: does not block proliferation
[9]
  antibacterial activity: broad antibacterial activity

B1: recombinant T. gondii DXR (TgDXR) (Toxoplasma gondii ME49) (protein)
chain: KRLVVLGSTGSIGKSTLEIAREFPDIFQIVGLAAGGSNLALLAEQVAAFRPQYVYLGDSSKVAELQERLNDHERSAAFPRPRLLLGDEGLAELACVPNYDILVSAIVGFKGVLPTLKALEAGKDVALANKEALVAAGPVFRCLLSTRGLLYGDQERQDRHERSHRSGDQEGDREEDTDGDRREECDKRRAKAGQKCGLLLPVDSEHSAIFQALQGVPASCYPPRKLLLTASGGPFRGRTRDELEQVTLESALKHPKWSMGAKITIDSATLMNKGLEVIEAHFAFGCPYSSIEVLVHPQAVIHSAVELRDGATLAQLGLPDMKLPIAYALTWPHRLAAPWSAGVDLTREGNLTFEKPDLNTFGCLGLAYEAGERGGVAPACLNAANEVAVERFRNKEIGFVDIEDTVRHVMALQERERDNFSDVSLQDVFDADHWARTAARAFKPRK
[10]
  Km: 25.5 ± 3.7 µM
